Measured values taken from the METLIN SMRT retention time set (Domingo-Almenara et al. 2019).

Assay: gradient 5% acetonitrile 3 min, to 50% in 2 min, to 85% in 15 min, held 3 min, 100 µL/min
Settings: column: Zorbax Extend-C18 2.1 x 50 mm; eluents: water / acetonitrile, 0.1% formic acid
How it was run: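 The mobile phases were water and acetonitrile, each with 0.1% formic acid, pumped at 100 μL/min through a Zorbax Extend-C18 column (2.1 × 50 mm, 1.8 μm). Pure standards were injected as mixtures of ~100 molecules and detected by a quadrupole time-of-flight mass spectrometer in positive and negative ionization mode. Retention time came from computationally picked adduct peaks, each inspected by hand.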

For Cc1nnc2ccc(N3CCC(C(=O)N4CCN(c5ncccn5)CC4)CC3)nn12, which RP-LC retention time is on record?
The RP-LC retention time was 646 s.

With Cc1ccccc1Nc1c(-c2ccccc2)nc2c(C)cccn12 as the compound, how does the RP-LC retention time read?
The RP-LC retention time was 733 s.

Which RP-LC retention time does the source give for Fc1ccc(-c2noc(Cc3nc(-c4ccc(Br)cc4)cs3)n2)cc1 here?
The RP-LC retention time was 1340 s.

Which RP-LC retention time does the source give for Cc1cc2nc(C(F)(F)F)c(=O)n(C(C)C(=O)NCCN(C)C)c2cc1C (stereo not drawn) here?
The RP-LC retention time was 695 s.

With CCc1noc(-c2cnc3nc(C)ccc3c2NCc2cc(OC)ccc2OC)n1 as the compound, how does the RP-LC retention time read?
The RP-LC retention time was 735 s.

For O=C(Nc1ccc2c(c1)OCCO2)N1CCC2(CC1)CC(OCc1ccccc1)CCO2 (stereo not drawn), which RP-LC retention time is on record?
Its RP-LC retention time is 914 s.

For CC(C)n1cnc2cc(CNC(=O)C3CCCC3)ccc21, which RP-LC retention time is on record?
The RP-LC retention time was 595 s.

Which RP-LC retention time does the source give for Cc1ccc(C(=O)N2CCC(Nc3ncnc4c3CCC4)CC2)cn1 here?
Its RP-LC retention time is 583 s.
